Results as given in article PMC3124571 (Biochemical pharmacology, 2011).
Like-named read-outs stand apart in the source and are kept apart here.

Legend:
[1] = biological target: carbonyl-reducing enzymes of baboon hepatic microsomes; type: biochemical; details: read-out: IC50 (TB formation, hepatic microsomes); n = 3
[2] = biological target: carbonyl-reducing enzymes of baboon placental microsomes; type: biochemical; details: read-out: IC50 (TB formation, placental microsomes)
[3] = biological target: carbonyl-reducing enzymes of baboon placental microsomes; type: biochemical; details: read-out: IC50 (EB formation, placental microsomes)
[4] = test system: TB and EB formation by baboon hepatic microsomes; details: hepatic microsomes 1 mg/ml, bupropion 30 µM, 40 min; menadione 100µM, 18β-GA 0.1µM, flufenamic acid 5µM, barbital, 4-methylpyrazole, dicumarol 500µM
[5] = test system: TB and EB formation by baboon placental microsomes; details: placental microsomes 1 mg/ml, bupropion 30 µM, 40 min; menadione 100µM, 18β-GA 0.1µM, flufenamic acid 5µM, barbital, 4-methylpyrazole, dicumarol 500µM
[6] = test system: OH-BUP formation by baboon hepatic microsomes
[7] = Biotransformation of bupropion by baboon hepatic microsomes; details: female, baboon (Papio cynocephalus), liver microsomes, pH 7.4, apparent Km
[8] = test system: baboon hepatic microsomes; test: as above
[9] = Biotransformation of bupropion by baboon placental microsomes; details: baboon (Papio cynocephalus), pH 7.4, apparent Km
[10] = test system: EB formation (bupropion carbonyl reduction); aldo-ketoreductase (flufenamic acid); test: in vitro; details: baboon (Papio cynocephalus), liver microsomes, probe bupropion 30 µM (≈Km)
[11] = test system: TB formation (bupropion carbonyl reduction); carbonyl reductase (menadione), aldo-ketoreductase (flufenamic acid); test: in vitro; details: baboon (Papio cynocephalus), liver microsomes, probe bupropion 30 µM (≈Km)
[12] = test system: EB formation (bupropion carbonyl reduction); carbonyl reductase (menadione), aldo-ketoreductase (flufenamic acid); test: in vitro; details: baboon (Papio cynocephalus), placental microsomes, probe bupropion 30 µM (≈Km)
[13] = test system: TB formation (bupropion carbonyl reduction); carbonyl reductase (menadione), aldo-ketoreductase (flufenamic acid); test: in vitro; details: baboon (Papio cynocephalus), placental microsomes, probe bupropion 30 µM (≈Km)

CC1(C)[C@@H](O)CC[C@]2(C)[C@H]3C(=O)C=C4[C@@H]5C[C@@](C)(C(=O)O)CC[C@]5(C)CC[C@@]4(C)[C@]3(C)CC[C@@H]12 [18β-GA, 18β-glycyrrhetinic acid]
IC50 [1]: 0.015 µM
IC50 [2]: 0.025 µM
IC50 [3]: 0.022 µM

CC1(C)[C@@H](O)CC[C@]2(C)[C@H]3C(=O)C=C4[C@@H]5C[C@@](C)(C(=O)O)CC[C@]5(C)CC[C@@]4(C)[C@]3(C)CC[C@@H]12 [18β-glycyrrhetinic acid]
inhibition of TB formation [4]: 80%
inhibition of EB formation [5]: 80%
inhibition of TB formation [5]: 80%

C=C(C)[C@@H]1CCC2=CC(=O)C[C@@H](C)[C@]2(C)C1 [(+)-nootkatone]
inhibition [6]: 10 to 15%

CCC1(CC)C(=O)NC(=O)NC1=O [barbital]
inhibition of EB formation [4]: did not affect
inhibition of TB formation [4]: did not affect
inhibition of EB formation [5]: did not affect
inhibition of TB formation [5]: did not affect

CC(NC(C)(C)C)C(=O)c1cccc(Cl)c1 (stereo not shown) [bupropion]
Km at 30 min ([7]; hydroxylation of bupropion to OH-BUP, bupropion 10–400µM): 36 ± 6 µM
Km at 30 min ([7]; reduction of bupropion to EB): 32 ± 3 µM
Km at 30 min ([7]; reduction of bupropion to TB): 28 ± 2 µM
Vmax, EB formation [8]: 46 ± 8 pmol mgprotein^−1 min^−1
Vmax, TB formation [8]: 116 ± 19 pmol mgprotein^−1 min^−1
Km at 40 min ([9]; reduction of bupropion to EB): 32 ± 14 µM
Km at 40 min ([9]; reduction of bupropion to TB): 20 ± 14 µM

O=C(O)c1ccccc1Nc1cccc(C(F)(F)F)c1 [flufenamic acid]
IC50 at 40 min [10]: 7.7 µM
IC50 at 40 min [11]: 11.4 µM
inhibition at 40 min [11]: 40%
IC50 at 40 min [12]: 5.6 µM
inhibition at 40 min [12]: 40%
IC50 at 40 min [13]: 9.9 µM
inhibition at 40 min [13]: 40%

CC1=CC(=O)c2ccccc2C1=O [menadione]
IC50 at 40 min [11]: 47 µM
IC50 at 40 min [12]: 30.3 µM
IC50 at 40 min [13]: 27.9 µM
